From patent US20140004530A1, “METHOD FOR THE EVALUATION OF COMPOUND-TARGET INTERACTIONS ACROSS SPECIES” (CELLZOME GMBH, priority 2010, published 2014)
Each block holds one molecule with its values, some of them ahead of it.

Columns and labels:
PIK3C3 = molecular target: T1, PIK3C3 (Homo sapiens, UniProt Q8NEB9); experiment: Competition binding to affinity matrix in mixed human/mouse cell lysate, quantitative MS of species-specific peptides; conditions: Experiment 1 (human/mouse 1); HL-60 + RAW 264.7 mixed lysate
T1 construct: Cell lysates from a human (HL60) and a mouse cell line (Raw 264.7) were prepared; endogenous in cells; host or cells: HL60
Description: (§1) Cell lysates from a human (HL60) and a mouse cell line (Raw 264.7) were prepared and subsequently mixed at a 1:1 ratio. Compound 1 was added at various concentrations (3 μM, 0.75 μM, 0.047 μM, 0.012 μM, plus DMSO solvent control) to aliquots of this mixed cell lysate and allowed to bind to the proteins in the lysate. Subsequently, the affinity matrix (beads with immobilized ligands) was added to each aliquot to capture proteins that were not interacting with compound 1. The generation of the affinity matrix (beads with immobilized ligands) was described in WO 2009/098021.
(§2) After the incubation time of 60 minutes the beads with captured proteins were separated from the lysate and bead bound proteins were eluted in SDS sample buffer and subsequently separated by SDS-Polyacrylamide gel electrophoresis. Electrophoresis was stopped after 20 minutes and the gel was stained with colloidal Coomassie. The stained area of each gel lane was cut out and subjected to in-gel proteolytic digestion with trypsin. Peptides originating from the different aliquots treated with compound 1 and the DMSO solvent control were labeled with isobaric tagging reagents (Tandem mass tag (TMT®) reagents, Thermofisher). The TMT® reagents are a set of multiplexed, amine-specific, stable isotope reagents that can label peptides in up to six different biological samples enabling simultaneous identification and quantitation of peptides. The combined samples were analyzed with a nano-flow liquid chromatography system coupled online to a tandem mass spectrometer (LC-MS/MS) experiment followed by reporter ion quantitation in the MS/MS spectra (Ross et al., 2004. Mol. Cell. Proteomics 3(12):1154-1169; Dayon et al., 2008. Anal. Chem. 80(8):2921-2931; Thompson et al., 2003. Anal. Chem. 75(8):1895-1904). Further experimental protocols can be found in WO2006/134056 and a previous publication (Bantscheff et al., 2007. Nature Biotechnology 25, 1035-1044).
(§3) Cells were homogenized in a Potter S homogenizer in lysis buffer: 50 mM Tris-HCl, 0.8% NP40, 5% glycerol, 150 mM NaCl, 1.5 mM MgCl2, 25 mM NaF, 1 mM sodium vanadate, 1 mM DTT, pH 7.5. One complete EDTA-free tablet (protease inhibitor cocktail, Roche Diagnostics, 1 873 580) per 25 ml buffer was added. The material was dounced 20 times using a mechanized POTTER S, transferred to 50 ml falcon tubes, incubated for 30 minutes rotating at 4° C. and spun down for 10 minutes at 20,000×g at 4° C. (10,000 rpm in Sorvall SLA600, precooled). The supernatant was transferred to an ultracentrifuge (UZ)-polycarbonate tube (Beckmann, 355654) and spun for 1 hour at 145.000×g at 4° C. (40.000 rpm in Ti50.2, pre-cooled). The supernatant was transferred again to a fresh 50 ml falcon tube, the protein concentration was determined by a Bradford assay (BioRad) and samples containing 5 mg of protein per aliquot were prepared. The samples were immediately used for experiments or frozen in liquid nitrogen and stored frozen at −80° C. Cell extracts from human HL60 cells and mouse raw 264.7 cells were mixed in a one to one (1:1) ratio.
(§4) Sepharose®-beads with the immobilized ligands (35 μl beads per aliquot) were equilibrated in lysis buffer and incubated with a cell lysate sample containing 5 mg of protein on an end-over-end shaker (Roto Shake Genie, Scientific Industries Inc.) for 60 minutes at 4° C. Beads were collected, transferred to Mobicol-columns (MoBiTech 10055) and washed with 10 ml lysis buffer containing 0.4% NP40 detergent, followed by 5 ml lysis buffer containing 0.2% detergent. To elute bound proteins, 60 μl 2× SDS sample buffer was added to the column. The column was incubated for 30 minutes at 4° C. and the eluate was transferred to a siliconized microfuge tube by centrifugation. Proteins were then alkylated with 108 mM iodoacetamid. Proteins were then separated by SDS-Polyacrylamide electrophoresis (SDS-PAGE). Suitable gel bands were cut out and subjected to in-gel proteolytic digestion with trypsin. […]

PIK3Ca = molecular target: T2, PIK3Ca (Homo sapiens, UniProt P42336); experiment: as above; conditions: for IC50: HL-60 + RAW 264.7 mixed lysate
T2 construct: Cell lysates from a human (HL60) and a mouse cell line (Raw 264.7) were prepared; endogenous in cells; host or cells: HL60
Description: as §1, §2, §3, §4

PIK3Cb (PI3Kbeta) [1] = molecular target: T3, PIK3Cb (PI3Kbeta) (Homo sapiens, UniProt P42338); experiment: as above; conditions: for IC50: HL-60 + RAW 264.7 mixed lysate
T3 construct: Cell lysates from a human (HL60) and a mouse cell line (Raw 264.7) were prepared; endogenous in cells; host or cells: HL60
T3 sequence (P42338 whole entry): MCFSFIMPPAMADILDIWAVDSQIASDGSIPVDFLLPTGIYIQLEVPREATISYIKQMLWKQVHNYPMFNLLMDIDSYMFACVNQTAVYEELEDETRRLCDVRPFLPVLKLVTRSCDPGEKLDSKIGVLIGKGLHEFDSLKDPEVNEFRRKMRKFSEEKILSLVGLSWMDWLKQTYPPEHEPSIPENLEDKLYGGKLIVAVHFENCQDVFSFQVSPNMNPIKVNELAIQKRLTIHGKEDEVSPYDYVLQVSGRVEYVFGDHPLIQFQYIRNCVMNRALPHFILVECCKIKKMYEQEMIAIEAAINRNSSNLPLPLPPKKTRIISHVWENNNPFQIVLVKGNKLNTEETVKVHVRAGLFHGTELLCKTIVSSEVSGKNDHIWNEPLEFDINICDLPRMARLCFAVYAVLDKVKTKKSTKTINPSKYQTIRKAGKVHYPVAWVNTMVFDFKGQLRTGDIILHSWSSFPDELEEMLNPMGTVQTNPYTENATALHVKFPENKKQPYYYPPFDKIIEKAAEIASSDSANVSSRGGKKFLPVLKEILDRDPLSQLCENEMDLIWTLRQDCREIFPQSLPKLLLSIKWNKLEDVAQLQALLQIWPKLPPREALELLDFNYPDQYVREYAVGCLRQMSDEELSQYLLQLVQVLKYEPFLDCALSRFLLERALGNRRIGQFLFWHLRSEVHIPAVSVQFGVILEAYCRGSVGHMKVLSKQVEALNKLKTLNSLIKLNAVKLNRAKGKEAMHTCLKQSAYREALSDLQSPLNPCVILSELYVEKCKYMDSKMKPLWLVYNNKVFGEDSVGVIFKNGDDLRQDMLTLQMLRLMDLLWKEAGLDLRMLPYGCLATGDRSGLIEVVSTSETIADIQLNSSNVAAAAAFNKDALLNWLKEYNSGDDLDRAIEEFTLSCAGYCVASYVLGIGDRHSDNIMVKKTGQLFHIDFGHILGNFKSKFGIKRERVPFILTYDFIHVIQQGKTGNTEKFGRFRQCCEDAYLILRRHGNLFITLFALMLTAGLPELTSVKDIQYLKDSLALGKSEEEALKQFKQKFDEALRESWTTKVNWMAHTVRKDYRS
T3 sequence (P27986 whole entry partner): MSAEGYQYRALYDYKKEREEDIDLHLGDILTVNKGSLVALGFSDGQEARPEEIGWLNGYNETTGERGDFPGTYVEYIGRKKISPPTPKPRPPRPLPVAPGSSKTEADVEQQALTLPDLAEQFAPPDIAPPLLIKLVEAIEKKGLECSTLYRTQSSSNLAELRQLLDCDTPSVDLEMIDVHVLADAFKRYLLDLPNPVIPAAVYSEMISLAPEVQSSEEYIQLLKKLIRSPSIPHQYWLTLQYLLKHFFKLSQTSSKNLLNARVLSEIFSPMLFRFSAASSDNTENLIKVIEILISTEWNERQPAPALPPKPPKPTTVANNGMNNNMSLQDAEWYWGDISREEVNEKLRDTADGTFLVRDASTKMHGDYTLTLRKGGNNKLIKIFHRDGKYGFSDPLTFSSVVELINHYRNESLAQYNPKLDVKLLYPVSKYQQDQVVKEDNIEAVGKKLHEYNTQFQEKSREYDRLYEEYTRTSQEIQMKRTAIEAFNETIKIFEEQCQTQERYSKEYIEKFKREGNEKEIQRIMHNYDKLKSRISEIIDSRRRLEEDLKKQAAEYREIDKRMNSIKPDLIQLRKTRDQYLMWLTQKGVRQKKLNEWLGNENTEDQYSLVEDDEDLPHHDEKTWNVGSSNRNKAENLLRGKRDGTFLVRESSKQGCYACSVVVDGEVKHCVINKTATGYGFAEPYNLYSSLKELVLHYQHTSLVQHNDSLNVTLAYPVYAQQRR
Description: as §1, §2, §3, §4

PIK3Cb (PI3Kbeta) [2] = molecular target: T4, PIK3Cb (PI3Kbeta) (Mus musculus, UniProt Q8BTI9); experiment: as above; conditions: HL-60 + RAW 264.7 mixed lysate
T4 construct: Cell lysates from a human (HL60) and a mouse cell line (Raw 264.7) were prepared; endogenous in cells; host or cells: RAW264.7
Description: as §1, §2, §3, §4

PIK3Cd (PI3Kδ) [3] = molecular target: T5, PIK3Cd (PI3Kδ) (Homo sapiens, UniProt O00329); experiment: as above; conditions: for IC50: HL-60 + RAW 264.7 mixed lysate
T5 construct: Cell lysates from a human (HL60) and a mouse cell line (Raw 264.7) were prepared; endogenous in cells; host or cells: HL60
T5 sequence (O00329 whole entry): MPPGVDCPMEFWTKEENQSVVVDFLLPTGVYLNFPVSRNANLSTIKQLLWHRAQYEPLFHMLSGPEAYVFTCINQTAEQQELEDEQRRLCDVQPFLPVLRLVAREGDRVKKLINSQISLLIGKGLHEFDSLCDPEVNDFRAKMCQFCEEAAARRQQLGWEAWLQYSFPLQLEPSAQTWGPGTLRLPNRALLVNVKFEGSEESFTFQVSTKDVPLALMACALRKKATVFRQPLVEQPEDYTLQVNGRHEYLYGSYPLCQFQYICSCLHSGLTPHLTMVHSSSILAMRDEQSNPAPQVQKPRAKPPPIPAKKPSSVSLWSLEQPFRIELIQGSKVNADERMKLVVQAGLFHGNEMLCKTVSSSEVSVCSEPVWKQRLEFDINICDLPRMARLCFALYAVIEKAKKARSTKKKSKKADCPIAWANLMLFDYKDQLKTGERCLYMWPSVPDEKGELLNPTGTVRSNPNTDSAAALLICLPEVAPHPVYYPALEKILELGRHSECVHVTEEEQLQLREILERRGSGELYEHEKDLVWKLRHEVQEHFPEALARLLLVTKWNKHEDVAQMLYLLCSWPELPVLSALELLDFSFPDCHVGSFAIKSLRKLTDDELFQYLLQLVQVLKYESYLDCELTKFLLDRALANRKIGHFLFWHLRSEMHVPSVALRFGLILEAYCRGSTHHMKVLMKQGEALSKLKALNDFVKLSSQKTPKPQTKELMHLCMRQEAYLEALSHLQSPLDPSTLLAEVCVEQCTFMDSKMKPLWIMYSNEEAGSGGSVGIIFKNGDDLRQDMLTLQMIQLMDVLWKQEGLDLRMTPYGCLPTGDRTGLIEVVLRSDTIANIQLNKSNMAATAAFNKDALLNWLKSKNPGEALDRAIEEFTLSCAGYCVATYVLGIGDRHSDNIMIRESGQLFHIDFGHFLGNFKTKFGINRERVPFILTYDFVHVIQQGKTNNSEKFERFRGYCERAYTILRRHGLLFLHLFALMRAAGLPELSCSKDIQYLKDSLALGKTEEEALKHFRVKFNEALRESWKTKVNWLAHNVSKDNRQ
T5 sequence (P27986 whole entry partner): as the sequence (P27986 whole entry partner) above
Description: as §1, §2, §3, §4

PIK3Cd (PI3Kδ) [4] = molecular target: T6, PIK3Cd (PI3Kδ) (Mus musculus, UniProt O35904); experiment: as above; conditions: HL-60 + RAW 264.7 mixed lysate
T6 construct: Cell lysates from a human (HL60) and a mouse cell line (Raw 264.7) were prepared; endogenous in cells; host or cells: RAW264.7
Description: as §1, §2, §3, §4

PIK3Cg (PI3Kγ) [5] = molecular target: T7, PIK3Cg (PI3Kγ) (Homo sapiens, UniProt P48736); experiment: as above; conditions: for IC50: HL-60 + RAW 264.7 mixed lysate
T7 construct: Cell lysates from a human (HL60) and a mouse cell line (Raw 264.7) were prepared; endogenous in cells; host or cells: HL60
T7 sequence (P48736 whole entry): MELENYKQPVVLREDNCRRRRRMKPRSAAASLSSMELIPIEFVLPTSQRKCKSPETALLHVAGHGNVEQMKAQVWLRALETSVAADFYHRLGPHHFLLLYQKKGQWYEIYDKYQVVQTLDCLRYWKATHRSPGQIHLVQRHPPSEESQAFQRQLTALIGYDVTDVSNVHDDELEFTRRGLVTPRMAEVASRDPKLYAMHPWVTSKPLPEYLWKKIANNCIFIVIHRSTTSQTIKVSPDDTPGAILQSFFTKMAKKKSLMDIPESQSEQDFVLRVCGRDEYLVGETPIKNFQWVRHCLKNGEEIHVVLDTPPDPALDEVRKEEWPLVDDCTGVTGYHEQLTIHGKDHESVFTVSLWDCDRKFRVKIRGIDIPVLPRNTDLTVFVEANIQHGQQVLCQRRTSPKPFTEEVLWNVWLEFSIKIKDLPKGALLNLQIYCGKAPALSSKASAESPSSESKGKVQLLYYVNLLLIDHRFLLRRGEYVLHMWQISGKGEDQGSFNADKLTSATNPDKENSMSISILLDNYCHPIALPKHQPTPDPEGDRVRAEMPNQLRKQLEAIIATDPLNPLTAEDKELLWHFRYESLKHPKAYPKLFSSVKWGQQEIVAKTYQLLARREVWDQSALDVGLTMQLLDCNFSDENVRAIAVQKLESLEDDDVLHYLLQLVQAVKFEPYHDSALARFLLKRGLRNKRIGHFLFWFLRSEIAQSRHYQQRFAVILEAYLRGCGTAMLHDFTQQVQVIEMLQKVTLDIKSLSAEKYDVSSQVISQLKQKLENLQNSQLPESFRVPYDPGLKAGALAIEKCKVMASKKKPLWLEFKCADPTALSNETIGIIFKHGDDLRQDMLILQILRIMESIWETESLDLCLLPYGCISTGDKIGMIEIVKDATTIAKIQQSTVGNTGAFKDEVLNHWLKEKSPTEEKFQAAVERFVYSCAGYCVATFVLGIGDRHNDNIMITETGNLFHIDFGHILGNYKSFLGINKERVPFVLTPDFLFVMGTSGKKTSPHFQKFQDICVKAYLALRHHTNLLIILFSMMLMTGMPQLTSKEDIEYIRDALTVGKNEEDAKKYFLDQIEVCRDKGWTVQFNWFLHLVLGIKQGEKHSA
Description: as §1, §2, §3, §4

PIK3Cg (PI3Kγ) [6] = molecular target: T8, PIK3Cg (PI3Kγ) (Mus musculus, UniProt Q9JHG7); experiment: as above; conditions: for IC50: HL-60 + RAW 264.7 mixed lysate
T8 construct: Cell lysates from a human (HL60) and a mouse cell line (Raw 264.7) were prepared; endogenous in cells; host or cells: RAW264.7
T8 sequence (Q9JHG7 whole entry): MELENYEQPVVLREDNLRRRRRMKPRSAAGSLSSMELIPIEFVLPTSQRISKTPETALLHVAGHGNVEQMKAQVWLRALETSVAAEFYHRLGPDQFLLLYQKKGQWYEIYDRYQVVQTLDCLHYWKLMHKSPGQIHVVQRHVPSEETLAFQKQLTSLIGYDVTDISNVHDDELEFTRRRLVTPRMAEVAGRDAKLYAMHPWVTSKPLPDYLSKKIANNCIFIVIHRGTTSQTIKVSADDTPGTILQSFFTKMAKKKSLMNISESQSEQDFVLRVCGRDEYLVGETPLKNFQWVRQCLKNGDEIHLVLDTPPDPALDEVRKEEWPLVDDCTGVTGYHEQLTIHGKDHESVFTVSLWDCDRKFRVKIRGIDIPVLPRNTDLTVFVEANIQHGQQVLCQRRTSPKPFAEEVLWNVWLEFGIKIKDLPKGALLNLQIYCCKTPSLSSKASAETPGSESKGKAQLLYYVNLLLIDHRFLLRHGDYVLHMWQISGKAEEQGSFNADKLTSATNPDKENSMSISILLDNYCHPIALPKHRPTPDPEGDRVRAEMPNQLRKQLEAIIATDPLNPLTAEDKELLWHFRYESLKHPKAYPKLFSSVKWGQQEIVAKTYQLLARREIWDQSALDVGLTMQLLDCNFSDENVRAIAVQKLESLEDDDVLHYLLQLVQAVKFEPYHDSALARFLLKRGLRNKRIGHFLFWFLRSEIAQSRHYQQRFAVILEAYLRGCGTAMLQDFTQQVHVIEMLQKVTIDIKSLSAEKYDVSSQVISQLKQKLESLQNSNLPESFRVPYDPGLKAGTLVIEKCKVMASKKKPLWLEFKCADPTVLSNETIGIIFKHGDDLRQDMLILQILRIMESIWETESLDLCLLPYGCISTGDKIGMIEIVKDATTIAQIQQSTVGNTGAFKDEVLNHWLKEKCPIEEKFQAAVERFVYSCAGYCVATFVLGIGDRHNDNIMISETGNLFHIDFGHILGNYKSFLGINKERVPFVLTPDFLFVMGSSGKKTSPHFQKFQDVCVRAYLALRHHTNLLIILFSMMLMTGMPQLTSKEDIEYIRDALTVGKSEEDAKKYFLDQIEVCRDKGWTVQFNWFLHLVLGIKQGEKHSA
Description: as §1, §2, §3, §4

PIK3R4 = molecular target: T9, PIK3R4 (Homo sapiens, UniProt Q99570); experiment: as above; conditions: Experiment 1 (human/mouse 1); HL-60 + RAW 264.7 mixed lysate
T9 construct: Cell lysates from a human (HL60) and a mouse cell line (Raw 264.7) were prepared; endogenous in cells; host or cells: HL60
Description: as §1, §2, §3, §4

PIK4Ca = molecular target: T10, PIK4Ca (Homo sapiens, UniProt P42356); experiment: as above; conditions: HL-60 + RAW 264.7 mixed lysate
T10 construct: Cell lysates from a human (HL60) and a mouse cell line (Raw 264.7) were prepared; endogenous in cells; host or cells: HL60
Description: as §1, §2, §3, §4

PIK4Cb = molecular target: T11, PIK4Cb (Homo sapiens, UniProt Q9UBF8); experiment: as above; conditions: HL-60 + RAW 264.7 mixed lysate
T11 construct: Cell lysates from a human (HL60) and a mouse cell line (Raw 264.7) were prepared; endogenous in cells; host or cells: HL60
Description: as §1, §2, §3, §4

PI3Kβ [7] = molecular target: T12, PI3Kβ (Mus musculus, UniProt Q8BTI9); experiment: Competition binding profile with the affinity matrix in mixed extracts of human and rodent cell lines; conditions: mixed extracts of human (Jurkat) and mouse RAW264.7 cells
T12 construct: acquired in mixed extracts of human, mouse and rat cell lines; endogenous in cells
Description: (§5) Since compound efficacy and toxicity are evaluated in laboratory animals, it is important to determine its potency and selectivity in the relevant species. In order to minimize inter-assay variation, we used a mass spectrometric targeted data acquisition approach (Savitski et al., 2010. J. Am. Soc. Mass. Spectrom. 21(10):1668-1679) based on species specific proteotypic peptides (FIG. 7) and mixed cell lysates. Competition binding profiles of compound 2 with the affinity matrix were acquired in mixed extracts of human, mouse and rat cell lines.
(§6) Proteomics-based inhibitor profiling. Affinity profiling assays were performed as described previously ([…]). Derivatized sepharose® beads (35 μl beads per sample) were equilibrated in lysis buffer and incubated with 1 ml (5 mg protein) cell lysate, which had been preincubated with test compound or vehicle for 45 min, on an end-over-end shaker for 1 hour. Incubation was done at 4° C. for all compounds. Beads were transferred to disposable columns (MoBiTec), washed with lysis buffer containing 0.2% NP-40 and eluted with 50 μl 2× SDS sample buffer. Proteins were alkylated with […] iodoacetamide for 30 minutes, separated on 4-12% NuPAGE (Invitrogen), and stained with colloidal Coomassie.
(§7) Sample preparation for mass spectrometry. Gels were cut into slices across the entire separation range and subjected to in-gel digestion. Peptide extracts were labeled with tandem mass tags (TMT®) (Thermo-Fisher Scientific) in 40 mM triethylammoniumbicarbonate (TEAB), pH 8.53. After quenching of the reaction with glycin labeled extracts were combined. For compound profiling experiments extracts from vehicle treated samples were labeled with TMT® reagent 131, and combined with extracts from compound-treated samples labeled with TMT® reagents 126-130, optionally fractionated using reversed phase chromatography at pH 12, dried and acidified prior to LC-MS/MS analysis.
(§8) LC-MS/MS analysis. Samples were dried in vacuo and resuspended in 0.1% formic acid in water and aliquots of the sample were injected into a nano-LC system (Eksigent 1 D+) coupled to LTQ-Orbitrap mass spectrometers (Thermo-Finnigan). Peptides were separated on custom 50 cm×[…] (internal diameter) reversed-phase columns (Reprosil) at 40° C. Gradient elution was performed from 2% acetonitrile to 40% acetonitrile in 0.1% formic acid over 2-4 hours. […] Intact peptides were detected in the Orbitrap at 30.000 resolution. […]
(§9) Creation of peptide inclusion lists. […] Subsequently for each human and mouse (or rat) protein that was of interest to the study the selected peptides were ranked according to the quality of the quantification and ease of identification inherent to these peptides (Savitski et al., 2010, J. Am. Soc. Mass. Spectrom. 21(10):1668-1679). […]
(§10) Peptide and protein quantification. […]

PI3Kβ [8] = molecular target: T13, PI3Kβ (Rattus norvegicus, UniProt Q9Z1L0); experiment: as above; conditions: mixed extracts of human (Jurkat) and rat RBL-1 cells
T13 construct: acquired in mixed extracts of human, mouse and rat cell lines; endogenous in cells
Description: as §5, §6, §7, §8, §9, §10

PI3Kγ [9] = molecular target: T14, PI3Kγ (Mus musculus, UniProt Q9JHG7); experiment: as above; conditions: mixed extracts of human (Jurkat) and mouse RAW264.7 cells
T14 construct: acquired in mixed extracts of human, mouse and rat cell lines; endogenous in cells
Description: as §5, §6, §7, §8, §9, §10

PI3Kγ [10] = experiment: as above; conditions: mixed extracts of human (Jurkat) and rat RBL-1 cells
Description: as §5, §6, §7, §8, §9, §10

[11] = potency ratio across species, average of two experiments

- IC50 (PIK3C3): ≥ 3 µM
- IC50 (PIK3Ca; Experiment 1 (human/mouse 1)): 2.37 µM
- IC50 (PIK3Ca; Experiment 2 (human/mouse 2)): 2.6 µM
- Average ratio human mouse, PIK3Ca (PIK3Ca; [11]): app. 1
- IC50 (PIK3Cb (PI3Kbeta) [1]; Experiment 1 (human/mouse 1)): 0.136 µM
- IC50 (PIK3Cb (PI3Kbeta) [1]; Experiment 2 (human/mouse 2)): 0.283 µM
- Average ratio human mouse, PIK3Cb (PIK3Cb (PI3Kbeta) [1]; [11]): 0.87
- IC50 (PIK3Cb (PI3Kbeta) [2]; Experiment 1 (human/mouse 1)): 0.251 µM
- IC50 (PIK3Cb (PI3Kbeta) [2]; Experiment 2 (human/mouse 2)): 0.162 µM
- IC50 (PIK3Cd (PI3Kδ) [3]; Experiment 1 (human/mouse 1)): 1.06 µM
- IC50 (PIK3Cd (PI3Kδ) [3]; Experiment 2 (human/mouse 2)): 1.53 µM
- Average ratio human mouse, PIK3Cd (PIK3Cd (PI3Kδ) [3]; [11]): 1.0
- IC50 (PIK3Cd (PI3Kδ) [4]; Experiment 1 (human/mouse 1)): 1.31 µM
- IC50 (PIK3Cd (PI3Kδ) [4]; Experiment 2 (human/mouse 2)): 1.29 µM
- IC50 (PIK3Cg (PI3Kγ) [5]; Experiment 1 (human/mouse 1)): 0.022 µM
- IC50 (PIK3Cg (PI3Kγ) [5]; Experiment 2 (human/mouse 2)): 0.027 µM
- ratio of the IC50 for PIK3CD and PIK3CG (selectivity window) (PIK3Cg (PI3Kγ) [5]; in humans): 48
- Average ratio human mouse, PIK3Cg (PIK3Cg (PI3Kγ) [5]; [11]): 2.61
- IC50 (PIK3Cg (PI3Kγ) [6]; Experiment 1 (human/mouse 1)): 0.057 µM
- IC50 (PIK3Cg (PI3Kγ) [6]; Experiment 2 (human/mouse 2)): 0.071 µM
- IC50 ratio for PIK3CD and PIK3CG (selectivity window) (PIK3Cg (PI3Kγ) [6]; in mouse): 23
- IC50 (PIK3R4): ≥ 3 µM
- IC50 (PIK4Ca; Experiment 1 (human/mouse 1)): ≥ 3 µM
- IC50 (PIK4Ca; Experiment 2 (human/mouse 2)): ≥ 3 µM
- IC50 (PIK4Cb; Experiment 1 (human/mouse 1)): ≥ 3 µM
- IC50 (PIK4Cb; Experiment 2 (human/mouse 2)): ≥ 3 µM
SMILES: CC(C)(C)NS(=O)(=O)c1cncc(-c2ccc3nc(N)nn3c2)c1 [compound 1]

- potency for PI3Kβ in mouse compared to human (PI3Kβ [7]): two- to four-fold lower
- potency for PI3Kβ in rat compared to human (PI3Kβ [8]): two- to four-fold lower
- potency for PI3Kγ in mouse compared to human (PI3Kγ [9]): two- to four-fold lower
SMILES: CC(C)(C)NS(=O)(=O)c1cncc(-c2cc(F)c3nc(N)nn3c2)c1 [compound 2]
- potency for PI3Kγ in rat compared to human (PI3Kγ [10]): two- to four-fold lower
